# Values of other authors in patent publication US20240316072A1, “THERAPEUTIC COMPOSITIONS, […] METHODS OF PREPARATION AND USE THEREOF” (Unique Flower LLC, priority 2023, published 2024).
# Settings: administration of β-Myrcene in the amount of 0.5 mg/g or more; generally understood
smiles,measurement,value
C=CC(=C)CCC=C(C)C [β-Myrcene],effect in a subject,"heavy, narcotic, “couch lock” effect"
